The text below walks through data of patent US4532258A, “Certain cyclopropane carboxylic acid esters and their pesticidal use” (priority 1979, dated 1985).

In brackets after ≈: the same amount, converted by molar mass.

One series in a line: Fish toxicity test. It is filed as in vivo. To be noted: guppy, water, female guppies, 20° C., 50% killed, read-out: TLm (medium tolerance limit). The method, then:
The mixture was stirred well to prepare a test water. Ten female guppies from 3 to 4 months of age were released into the test water and maintained at 20° C. The concentration of the test compound at which 50% of the guppies were killed during the ensuring 48 hours was determined. [This concentration is referred to as TLm (medium tolerance limit, ppm)].

A short description of series [1]: Light stability test (residue after exposure to ultraviolet light). It is filed as physicochemical. As to conditions: UV 3600 Å, 31°-35° C. The method, then:
Into 2.0 ml of acetone were dissolved 80 mg of each test compound. A 5 μl portion of the solution was taken and spread on a glass plate (Micro Standard Cover Glass, 18 m/m No. 1, 200 pcs, Matsunami Glass Ind., Ltd.) and the acetone was evaporated. The specimen was exposed to ultraviolet light from a fluorescent lamp (Tokyo Shibaura Electric Co., Ltd., FL20BL, glow-type, 100 V, 24.5 W, wavelength=3600 Å) which was fixed just above the specimen at a distance of 11 cm at a temperature of 31°-35° C. for a predetermined exposure time. The test liquid was washed away with 1.0 ml of methanol containing 0.04% of dioctyl phthalate as an internal reference and high-speed liquid chromatography was carried out on the washings to determine the residual amount of the test compound.

For the molecule `C#CC(OC(=O)[C@@H]1[C@@H](CC(Cl)(Cl)Cl)C1(C)C)c1cccc(Oc2ccccc2)c1` (relative stereo) [(11) [Trans-isomer]], the LC50 at 48 h in the series “Fish toxicity test” was ≥ 10 µg/mL.
As to `CC1(C)C(CC(Cl)(Cl)Cl)C1C(=O)OC(C#N)c1cccc(OC=C(Cl)Cl)c1` (stereo not drawn) [(34) [Mixture]], the “Residue (%)” value in series [1] (exposure time 3.5 hrs.) turned out to be 100%; in series [1] (exposure time 3 days) it was 88%; in series [1] (exposure time 5 days), 44%.
`C#CC(OC(=O)[C@@H]1[C@H](CC(C)(Cl)Cl)C1(C)C)c1cccc(Oc2ccccc2)c1` (relative stereo) [(13) [Cis-isomer]]: the LC50 at 48 h in “Fish toxicity test” was ≥ 10 µg/mL.
Same read-out and setting: the figure for `CC1(C)[C@H](C(=O)OC(C(N)=S)c2cccc(Oc3ccccc3)c2)[C@@H]1CC(Cl)(Cl)Cl` (relative stereo) [(27) [Cis-isomer]] is ≥ 10 µg/mL; for `CC1(C)[C@H](CC(Cl)(Cl)Cl)[C@H]1C(=O)OC(C#N)c1cccc(Oc2ccccc2)c1` (relative stereo) [(7) [Trans-isomer]] it is 0.5 to 10 µg/mL (≈ 1.1 to 22.1 µM).
`C=CCC1=C(C)C(OC(=O)C2C(C=C(C)C)C2(C)C)CC1=O` (stereo not drawn) [Allethrin, reference compound]: the “Residue (%)” value in series [1] (exposure time 3.5 hrs.) turned out to be 14%; in series [1] (exposure time 3 days), 0%.
